Experimental data published in ChEMBL document CHEMBL1152011, “The first protoberberine alkaloid analogue with in vivo antimalarial activity” (Bioorg Med Chem Lett, 1994).
Active and inactive are the calls of the source. The calls are words filed in the database; no cut-off is given here.

Experiments:
Format in all cases: functional, organism-based
Mus musculus = test: In vivo antimalarial activity against Plasmodium chabaudi in BALB/c mice (Mus musculus) at a dose of 0.25 mg/kg; active; set-up: dose 0.25 mg/kg
Plasmodium falciparum [1] = test: In vitro inhibition of multidrug-resistant Plasmodium falciparum K1; […]
Plasmodium falciparum [2] = test: In vitro inhibition of multidrug-resistant Plasmodium falciparum K1

COc1cc2c(cc1OC)-c1c(N)c3cc(OC)c(OC)cc3c[n+]1CC2.[Cl-]
Activity (Mus musculus): Active | IC50 (Plasmodium falciparum [1]): 0.8 µg/mL

COc1ccc2cc3[n+](cc2c1OC)CCc1cc2c(cc1-3)OCO2.[Cl-] [BERBERINE CHLORIDE]
IC50 (Plasmodium falciparum [2]): 0.36 µg/mL

COc1cc2c(cc1OC)-c1cc3cc(OC)c(OC)cc3c[n+]1CC2.[Cl-]
Activity (Mus musculus): Active | IC50 (Plasmodium falciparum [1]): 0.8 µg/mL

COc1cc2c(cc1OC)-c1cc3c(OC)c(OC)ccc3c[n+]1CC2.[Cl-]
IC50 (Plasmodium falciparum [1]): 0.8 µg/mL
